The subject of this test is human mixed lymphocyte reaction (MLR). Kind of test: human mixed lymphocyte reaction (MLR) assay, immunosuppressant activity. Type of test: cell-based. The conditions noted are these: Table 1. The procedure: Example 68; In Vitro Assay of Biological Activity
The immunosuppressant activity of the compounds of the present invention was determined using the human mixed lymphocyte reaction (MLR) assay described by Kino, T. et al. in Transplantation Proceedings XIX(5);36-39, Suppl. 6 (1987), incorporated herein by reference.

Our source for the IC50 values is patent publication US5561139A, “Substituted alicyclic-aliphatic amine-containing macrocyclic immunomodulators” (Abbott Laboratories, priority 1995, dated 1996).

Bounds are passed on as bounds.

Take `CC[C@@H]1/C=C(\C)C[C@H](C)C[C@H](OC)[C@H]2O[C@@](O)(C(=O)C(=O)N3CCCC[C@H]3C(=O)O[C@H](/C(C)=C/[C@@H]3CC[C@H](NCCN4CCOCC4)[C@H](OC)C3)[C@H](C)[C@@H](O)CC1=O)[C@H](C)C[C@@H]2OC` [Example 5]: the concentration for half-maximal inhibition (IC50) – broadly, the concentration at which inhibition is half-maximal – was below 1 µM.

`CC[C@@H]1/C=C(\C)C[C@H](C)C[C@H](OC)[C@H]2O[C@@](O)(C(=O)C(=O)N3CCCC[C@H]3C(=O)O[C@H](/C(C)=C/[C@@H]3CC[C@H](NC4CCN(Cc5ccccc5)CC4)[C@H](OC)C3)[C@H](C)[C@@H](O)CC1=O)[C@H](C)C[C@@H]2OC` [Example 8] showed an IC50 below 1 µM.

Take `CC[C@@H]1/C=C(\C)C[C@H](C)C[C@H](OC)[C@H]2O[C@@](O)(C(=O)C(=O)N3CCCC[C@H]3C(=O)O[C@H](/C(C)=C/[C@@H]3CC[C@H](NCCCN4CCCCC4)[C@H](OC)C3)[C@H](C)[C@@H](O)CC1=O)[C@H](C)C[C@@H]2OC` [Example 9]: the IC50 is below 1 µM.

Consider `CC[C@@H]1/C=C(\C)C[C@H](C)C[C@H](OC)[C@H]2O[C@@](O)(C(=O)C(=O)N3CCCC[C@H]3C(=O)O[C@H](/C(C)=C/[C@@H]3CC[C@H](NCCCN4CCN(C)CC4)[C@H](OC)C3)[C@H](C)[C@@H](O)CC1=O)[C@H](C)C[C@@H]2OC` [Example 12], for which the half-maximal inhibitory concentration (IC50) is below 1 µM.

In turn, `CC[C@@H]1/C=C(\C)C[C@H](C)C[C@H](OC)[C@H]2O[C@@](O)(C(=O)C(=O)N3CCCC[C@H]3C(=O)O[C@H](/C(C)=C/[C@@H]3CC[C@H](NCCCN4CCOCC4)[C@H](OC)C3)[C@H](C)[C@@H](O)CC1=O)[C@H](C)C[C@@H]2OC` [Example 17] gave an IC50 below 1 µM.

The compound `CC[C@@H]1/C=C(\C)C[C@H](C)C[C@H](OC)[C@H]2O[C@@](O)(C(=O)C(=O)N3CCCC[C@H]3C(=O)O[C@H](/C(C)=C/[C@@H]3CC[C@H](NCCN4CCNCC4)[C@H](OC)C3)[C@H](C)[C@@H](O)CC1=O)[C@H](C)C[C@@H]2OC` [Example 18] registered a half-maximal inhibitory concentration (IC50) below 1 µM.

Take `CC[C@@H]1/C=C(\C)C[C@H](C)C[C@H](OC)[C@H]2O[C@@](O)(C(=O)C(=O)N3CCCC[C@H]3C(=O)O[C@H](/C(C)=C/[C@@H]3CC[C@H](NCCN4CCCC4)[C@H](OC)C3)[C@H](C)[C@@H](O)CC1=O)[C@H](C)C[C@@H]2OC` [Example 19]: the half-maximal inhibitory concentration (IC50) was below 1 µM.

The compound `CC[C@@H]1/C=C(\C)C[C@H](C)C[C@H](OC)[C@H]2O[C@@](O)(C(=O)C(=O)N3CCCC[C@H]3C(=O)O[C@H](/C(C)=C/[C@@H]3CC[C@H](N(CCO)CCN4CCOCC4)[C@H](OC)C3)[C@H](C)[C@@H](O)CC1=O)[C@H](C)C[C@@H]2OC` [Example 30] showed an IC50 below 1 µM.

In turn, `CC[C@@H]1/C=C(\C)C[C@H](C)C[C@H](OC)[C@H]2O[C@@](O)(C(=O)C(=O)N3CCCC[C@H]3C(=O)O[C@H](/C(C)=C/[C@@H]3CC[C@@H](NCCCN4CCCCC4)[C@H](OC)C3)[C@H](C)[C@@H](O)CC1=O)[C@H](C)C[C@@H]2OC` [Example 47] returned a 50% inhibitory concentration (IC50) below 1 µM.
